Among the data in patent US11780845B2 (Relay Therapeutics, Inc., priority 2019, dated 2023) are IC50 values, retold here.

Test [1] deals with FGFR2 (Homo sapiens (Human), UniProt P21802). Briefly: Biochemical FGFR2 Caliper assay.
Test [2] concerns SNU-16. The test is described as follows: Cell SNU-16 assay. The test is classed as cell-based.
The mark [3] stands for this setting: Homo sapiens, SNU-16, SNU-16 cells.

The structures appear in SMILES notation. Bounds are passed on as bounds.

Usually IC50 stands for the midpoint of a concentration-inhibition curve.

Sequence of FGFR2 (P21802 22-821): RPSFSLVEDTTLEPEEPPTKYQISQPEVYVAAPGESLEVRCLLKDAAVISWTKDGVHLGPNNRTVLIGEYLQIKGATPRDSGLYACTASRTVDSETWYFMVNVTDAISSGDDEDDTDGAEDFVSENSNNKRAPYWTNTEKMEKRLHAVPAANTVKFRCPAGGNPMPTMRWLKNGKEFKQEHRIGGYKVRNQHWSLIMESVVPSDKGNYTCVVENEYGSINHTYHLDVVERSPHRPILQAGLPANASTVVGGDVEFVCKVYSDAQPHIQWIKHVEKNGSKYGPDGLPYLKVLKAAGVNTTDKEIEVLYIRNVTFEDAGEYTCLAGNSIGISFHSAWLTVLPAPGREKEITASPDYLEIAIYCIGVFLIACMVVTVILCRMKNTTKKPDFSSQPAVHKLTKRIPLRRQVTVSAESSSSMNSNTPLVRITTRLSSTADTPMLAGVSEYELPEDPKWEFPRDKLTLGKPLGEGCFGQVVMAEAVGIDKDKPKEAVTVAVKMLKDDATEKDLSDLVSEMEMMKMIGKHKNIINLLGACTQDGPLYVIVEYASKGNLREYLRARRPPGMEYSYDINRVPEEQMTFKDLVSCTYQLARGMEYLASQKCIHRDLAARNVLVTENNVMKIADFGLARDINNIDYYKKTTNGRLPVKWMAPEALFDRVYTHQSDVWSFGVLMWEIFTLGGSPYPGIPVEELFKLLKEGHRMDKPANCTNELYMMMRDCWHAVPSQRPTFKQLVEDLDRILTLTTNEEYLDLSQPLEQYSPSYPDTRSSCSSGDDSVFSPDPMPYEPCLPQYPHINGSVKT

Consider `Cc1cccc(Oc2ccc(-c3c(-c4cccc(NC#N)c4)n(C)c4ncnc(N)c34)cc2)n1` [Example 1121], for which the IC50 in test [1] was less than 0.1 µM; in test [2] (setting [3]) it was no more than 0.1 µM.
As for `C=CC(=O)N[C@@H]1C[C@H]1c1c(-c2ccc(C(=O)N3CCCC3)cc2)c2c(N)ncnc2n1C` (single isomer, unassigned) [Example 974], the IC50 in test [1] and in test [2] (setting [3]) was 1 to 100 µM throughout.
As to `C#Cc1cc(C)c(-c2c(-c3ccc(Oc4nccc(C)n4)c(C#N)c3)c3c(N)ncnc3n2C)cn1` [Example 1262], the IC50 is less than 0.1 µM in test [1] and no more than 0.1 µM in test [2] (setting [3]).
On to `COCC#Cc1cc(C)c(-c2c(C3=CC[C@H](C(=O)N4CCC[C@H]4C)CC3)c3c(N)ncnc3n2C)cn1` [Example 1382], for which the IC50 in test [1] is less than 0.1 µM; in test [2] (setting [3]), no more than 0.1 µM.
The corresponding values for `C=C(C)C(=O)Nc1ccc(-c2c(-c3ccc(C(=O)NCC(C)C)c(OC)c3)c3c(N)ncnc3n2C)cc1` [Example 910] are 1 to 100 µM and 1 to 100 µM.
The corresponding values for `C=CC(=O)N[C@@H]1CC=C(c2c(-c3ccc(Oc4nccc(C)n4)c(F)c3)c3c(N)ncnc3n2C)CC1` [Example 1376] are 0.25 to 1 µM and 0.1 to 0.25 µM.
For `C#Cc1cc(C)c(-c2c(C3=CC[C@@H](C(=O)N4CCCC4)CC3)c3c(C)ncnc3n2C)cn1` (single isomer, unassigned) [Example 1199], in that order: less than 0.1 µM and no more than 0.1 µM.
Turning to `C#Cc1cc(OC)c(-c2c(-c3ncc(Oc4nccc(C)n4)cc3F)c3c(C)ncnc3n2C)cn1` [Example 1454], the IC50 is less than 0.1 µM in test [1] and no more than 0.1 µM in test [2] (setting [3]).
The corresponding values for `C#Cc1ncc(-c2c(-c3ccc(Oc4nccc(C)n4)c(F)c3)c3c(C)ncnc3n2C)c(C)c1F` [Example 1255] are less than 0.1 µM and no more than 0.1 µM.
The corresponding values for `C=C(C)C(=O)Nc1cc(C)c(-c2c(-c3ccc(Oc4nccc(C)n4)cc3)c3c(N)ncnc3n2C)c(C)c1` [Example 1165] are less than 0.1 µM and no more than 0.1 µM.
The corresponding values for `C#Cc1cc(CCCO)c(-c2[nH]c3ncnc(N)c3c2-c2ccc(Oc3nccc(C)n3)c(F)c2)cn1` [Example 1478] are 0.25 to 1 µM and 0.1 to 0.25 µM.
Consider `C=C(C)C(=O)Nc1ccc(-c2c(C3=CC[C@]4(CC3)Cc3ccc(OC)nc3C4=O)c3c(N)ncnc3n2C)cc1` [Example 1337], for which the IC50 in test [1] is 0.1 to 0.25 µM; in test [2] (setting [3]), no more than 0.1 µM.
The corresponding values for `C=C(C)C(=O)Nc1ccc(-c2c(-c3cnc(-c4cccc(OC)c4)s3)c3c(N)ncnc3n2C)cc1` [Example 1420] are 0.25 to 1 µM and 0.25 to 1 µM.
Consider `C#Cc1cc(C)c(-c2c(C3=CC[C@@H](C(=O)N4CCC[C@H]4C#N)CC3)c3c(C)ncnc3n2C)c(C)n1` (atropisomer, axis not shown) [Example 1466], for which the IC50 in test [1] and in test [2] (SNU-16 cells) was 0.1 to 0.25 µM throughout.
As to `C#Cc1ncc(-c2c(-c3ccc(C(=O)N(C)CC(C)C)cc3)c3c(N)ncnc3n2C)c(C)c1F` [Example 1305], the results for the IC50 in test [1] and in test [2] (setting [3]) were less than 0.1 µM and no more than 0.1 µM, respectively.
The corresponding values for `C=CC(=O)N1CC=C(c2cccc(-c3c(-c4ccc(Oc5cccc(C)n5)cc4)c4c(N)ncnc4n3C)c2)C1` [Example 1080] are 1 to 100 µM and 1 to 100 µM.
The corresponding values for `C=C(C)C(=O)Nc1cc(-c2c(-c3ccc(Oc4nccc(C)n4)cc3)c3c(N)ncnc3n2C)n(C)n1` [Example 1065] are 0.25 to 1 µM and 0.25 to 1 µM.
With `C=CC(=O)N1C[C@H](c2c(-c3ccc(C(=O)N4CCCCC4)cc3)c3c(N)ncnc3n2C)C[C@@H]1C` (single isomer, unassigned) [Example 888], the IC50 in test [1] and in test [2] (setting [3]) was 1 to 100 µM throughout.
For `C=C(C)C(=O)Nc1cccc(-c2[nH]c3ncnc(N)c3c2-c2ccc(C(=O)NCC3(F)COC3)cc2)c1` [Example 1079], the IC50 in test [1] was less than 0.1 µM; in test [2] (setting [3]), no more than 0.1 µM.
